From ChEMBL document CHEMBL3758115, “Bacaryolanes A-C, Rare Bacterial Caryolanes from a Mangrove Endophyte” (2015)

Key:
Bacillus spizizenii [1] = assay: Antibacterial activity against Bacillus subtilis ATCC 6633 at 50 ug/disk after 24 hrs; assay type: functional; details: ATCC 6633, 24 h, read-out: IZ
Bacillus spizizenii [2] = assay: Antibacterial activity against Bacillus subtilis ATCC 6633 at 0.25 ug/disk after 24 hrs; assay type: functional; details: ATCC 6633, 24 h, read-out: IZ

Structure (SMILES) | zone of inhibition at 50 µg/disc (Bacillus spizizenii [1]) | zone of inhibition at 0.25 µg/disc (Bacillus spizizenii [2])
CC1(C)C[C@@H]2[C@@H]1[C@@H](O)C[C@@]1(C)CCC[C@]2(O)C1 | 10 mm | 
O=C(N[C@H](CO)[C@H](O)c1ccc([N+](=O)[O-])cc1)C(Cl)Cl [CHLORAMPHENICOL] |  | 28 mm
